“And” between values parts separate entries of the source, which are not always exact repeats. Identical values can stand only once.
Key:
PGC-1α = assay: In vivo PGC-1α expression in liver of LPS-treated mice (ELISA); parameters: species or system C57BL/6 mice; settings: LPS 3 mg/Kg IP, test compound 10 mg/kg PO BID, liver, 24 hours post LPS; for PGC-1α levels: C57BL/6 mice; for PGC-1α level (%): Control = 100
Procedure: C57BL/6 mice were procured from Vivo Bio Tech Ltd. Male mice were used for the study within an age range of 7 to 8 weeks. Body weight for these mice ranged from 20 g to 25 g. Animals were housed in a group of 6 in individually ventilated cages with temperature of 22±3° C., a relative humidity of 50 to 60%. The bottom of the cages was layered with sterilized corn cob. Animals were provided with gamma irradiated feed and autoclaved drinking water ad-libitum. The IVCs were maintained at an environment controlled (Centrally Air-Conditioned) room at a temperature of 22±3° C., a relative humidity of 50 to 60%, light intensity of 250-300 lux and a 12 hour light-dark cycle and noise intensity of <85 db.
Method of Preparation: LPS was dosed at 3 mg/kg in a dose volume of 10 ml/kg. For this, 0.3 mg/ml of LPS solution (Micronized suspension) was prepared. Butter paper was placed on analytical balance, tarred and LPS was placed on butter paper and its weight was noted down. LPS was transferred to 15 ml falcon tube. Then required amount of normal saline was added to it to make it 0.3 mg/ml. The solution was vortexed properly for 5 minutes and placed on ice. LPS solution was vortexed every time before aspiration and injection.
LPS was dosed at 3 mg/kg. Each test compound was dosed at 10 mg/kg, 2 hour and 15 min post LPS administration.
0.5% CMC was used as a vehicle with a dose volume of 10 ml/kg. An IP route was used for LPS, and a PO route was used for each test compound. Animals were sacrified 24 hours post LPS dosing, and plasma were collected. PGC-1α level was measured in liver samples, and other tissues were stored for future analysis. PGC-1α level was checked using ELISA kit—CUSABIO Mouse PPARGC1A ELISA kit.
Protocol: One day before start of the experiment C57BL/6 Mice (Male, 6-7-week-old) were randomized on the basis of their body weight and were divided into groups. All the cages were assigned the respective group name. Animals inside each cage were marked on the base of the tails with permanent marker to distinguish each animal. Mice were fasted overnight. Next day morning animals were dosed with test item. Group 1 (Control) and Group 2 (LPS) Animals were dosed with vehicle (0.5% CMC). Test items were prepared in 0.5% CMC by trituration in mortar and pestle and addition of CMC drop by drop. 2 hour post test item/vehicle dosing animals were administered with LPS through IP route at 3 mg/kg of body weight. Group 1 (Control) animals were administered with saline. 0.25 hour post LPS administration, animals were again dosed with test item/vehicle. Post dosing, animals were returned to their respective cages and kept until termination of the study. No feed was offered to any group. Animals were provided with water. 24 hour post LPS administration, blood was collected from each animal under influence of mild isoflurane anesthesia through retro-orbital technique. Animals were sacrificed by CO2 asphyxiation technique. Post-termination, animals were dissected and vital organs, liver, brain, skeleton muscle were collected in Eppendorf tubes and flash frozen in liquid nitrogen. Serum was collected from whole blood by centrifuging it at 4° C. at 10,000 RPM and for 10 minutes. (Blood was left for 2 hour for coagulation before centrifugation) After completion of the experiment, all collected samples were stored at −80° C. until analysis.
Assay Methods/Protocol: The mortar was chilled with liquid nitrogen and then the small tissue pieces were grinded in the presence of liquid nitrogen to a fine powder. Immediately after grinding, transferred small amount of tissue powder to a 1.5 ml micro centrifuge tube containing 1.0 ml lysis buffer (RIPA buffer+Protease inhibitor). The samples were then incubated on ice for 2 hours. The samples were vortexed every 15 minutes. The samples were then centrifuged at 13000×g for 15 minutes at 2-8° C. After centrifugation the supernatant was removed carefully and pellet was discarded. […]

[1] = tested on: PGC-1α expression in C2C12 cells; assay: In vitro PGC-1α expression in C2C12 cells (cell ELISA); type: cell-based; settings: 0.01 nM, 5000 cells/well, OD @ 650 nm, DMSO control = 100
Procedure: Culture conditions: DMEM containing 25 mM glucose with 10% FBS supplementation; grown at 37° C. and 5% CO2.
Drugs: (+)-Epicatechin, AICAR (direct activator of AMPK).
Assay Conditions: C2C12 cells were cultured in DMEM supplemented in 10% FBS upto 80% confluence. The cells were further trypsinized and seeded into a 96 well plate at a density of 5000 cells/well (well volume—100 μL) (Day 0). Following attachment, the cells were allowed to reach 80-90% confluence in the plate (typically 48 hours post seeding) and further differentiated using DMEM+2% Horse Serum (200 μL/well). The media was changed every day or at least every alternate day for 5 days to allow myoblasts to differentiate into myotubes. On day 7 (post seeding), the cells were treated with standards and test compounds for PGC-1 α assay.
PGC-1α assay: For the detection of PGC-1a, the cells were incubated with 0.5 μg/ml primary antibody (Merck, WH0010891M3) in PBS-T containing 5% BSA at 4° C. overnight. The cells were then washed three times with PBS-T for 5 minutes and incubated with 1:1000 dilution secondary antibody (Anti-rabbit IgG, HRP-linked Antibody, Cell Signaling) in PBS-T with 1% BSA for 1 hour at RT. Cells were washed three times with PBS-T for 5 minutes The cells were incubated with 100 μl TMB substrate solution for 30 minutes and the reaction was stopped with 100 μl of 2N H2SO4. […] (For plate optical density calculations, a background correction was taken at 540 nm). The final PGC-1a activation % is average of activation of 6 replicates.

| SMILES | PGC-1α levels (PGC-1α) | PGC-1α level (%) (PGC-1α) | % Activity (PGC-1α expression) [1] |
| --- | --- | --- | --- |
| CN1C(=O)CC[C@@]2(C)C1=CCC1C2[C@@H](O)C[C@@]2(C)C1CC[C@@H]2NC(=O)C1CC1 (stereo partly drawn) [Compound 26, N-((4aR,5S,6aS,7S)-5-hydroxy-1,4a,6a-trimethyl-2-oxo-2,3,4,4a,4b,5,6,6a,7,8,9,9a,9b,10-tetradecahydro-1H-indeno[5,4-f]quinolin-7-yl)cyclopropanecarboxamide] | 32298 pg/mL | 84% | 129% and 146% |
| CC(C)CCNC(=O)C1CCC2C3CC=C4N(C)C(=O)CC[C@]4(C)C3[C@@H](O)C[C@]12C (stereo partly drawn) [Compound 36, (4aR,5S,6aS)-5-hydroxy-N-isopentyl-1,4a,6a-trimethyl-2-oxo-2,3,4,4a,4b,5,6,6a,7,8,9,9a,9b,10-tetradecahydro-1H-indeno[5,4-f]quinoline-7-carboxamide] | 29341 pg/mL | 77% | 133% and 130% |
| CNC(=O)[C@H]1CCC2C3CC=C4N(C)C(=O)CC[C@]4(C)C3[C@@H](O)C[C@@]21C (stereo partly drawn) [Compound 40, (4aR,5S,6aS)-5-hydroxy-N,1,4a,6a-tetramethyl-2-oxo-2,3,4,4a,4b,5,6,6a,7,8,9,9a,9b,10-tetradecahydro-1H-indeno[5,4-f] quinoline-7-carboxamide] | 39014 pg/mL and 22668 pg/mL | 73% and 75% | 130% and 143% |

— patent publication US20240270786A1, “STEROID COMPOUNDS” (Epirium Bio Inc., priority 2022, published 2024)
